Measured values reported in US10179770B2, “Quinolines derivatives as novel anticancer agents” (GENOSCIENCE PHARMA, priority 2013, dated 2019).

Columns and labels:
Kasumi-1 = assay: CellTiter-Glo cell viability assay (example 57); assay type: cell-based; conditions: Homo sapiens; Kasumi-1 (Leukemia); Cell Titer-Glo; 72 h
Procedure: (§1) The human breast cancer cell line SkBr3 and the human metastatic prostate carcinoma cell line LnCAP were cultured in Dulbecco's modified Eagle's medium (DMEM) supplemented with 10% fetal bovine serum (FBS) and 0.1% sodium pyruvate. The human myelocytic cell line U937 and NB4 were maintained in RPMI medium 1640 1× (Gibco 21875-034) supplemented with 10 % Fetal Bovine Serum (FBS, Eurobio S39130-0808) Kasumi and SKM-1 were maintained in RPMI medium 1640 1× (Gibco 21875-034) supplemented with 20 % Fetal Bovine Serum (FBS, Eurobio S39130-0808), HL60 was maintained in Iscove's modified Dulbecco's medium 1× (IMDM, Gibco 21890) supplemented with 20% Fetal Bovine Serum (FBS, Eurobio S39130-0808), cell line was maintained in MEM alpha medium (Gibco 22561-021) supplemented with 10% FBS at 37° C. with 5% CO2. Cell outgrowth was measured using the CellTiter-Glo luminescent cell viability assay as described by the manufacturer (Promega, Ref G7571 Madison, Wis., USA) using a FLUOstar optima luminometer (BMG Labtech, Ortenberg, Germany).
(§2) Briefly, for adherent cells, 10^4 cells were plated onto 96-well plates (white with clear bottom (3610, Corning Costar) in 100 μL of media per well and were allowed to grow overnight before the assay. For cells growing in suspension, 10^4 cells were plated onto 96-well plates immediately before the assay. […] Vehicle (DMSO) was used as a control, and all compounds were tested in a constant percentage of DMSO (1%). After addition of 50 μL of CellTiter GLO, luminescence was measured using a Centro luminometer (Berthold). EC50 values were determined as the dose of compound required to reduce luminescent values to 50% of the signal obtained for untreated cell cultures. All experiments were done in duplicate and repeated two independent times.

MOLM-14 = assay: CellTiter-Glo cell viability assay (example 57); assay type: cell-based; conditions: Homo sapiens; MOLM-14 (Leukemia); Cell Titer-Glo; 72 h
Procedure: as §1, §2

HL60 = assay: CellTiter-Glo cell viability assay (example 57); assay type: cell-based; conditions: Homo sapiens, HL-60; HL60 (Leukemia); Cell Titer-Glo; 72 h
Procedure: as §1, §2

SKM-1 = assay: CellTiter-Glo cell viability assay (example 57); assay type: cell-based; conditions: Homo sapiens; SKM-1 (Leukemia); Cell Titer-Glo; 72 h
Procedure: as §1, §2

NB4 = assay: CellTiter-Glo cell viability assay (example 57); assay type: cell-based; conditions: Homo sapiens, NB-4; NB4 (Leukemia); Cell Titer-Glo; 72 h
Procedure: as §1, §2

U937 = assay: CellTiter-Glo cell viability assay (example 57); assay type: cell-based; conditions: Homo sapiens, U-937; U937 (Leukemia); Cell Titer-Glo; 72 h
Procedure: as §1, §2

KG-1 = assay: CellTiter-Glo cell viability assay (example 57); assay type: cell-based; conditions: Homo sapiens; KG-1 (Leukemia); Cell Titer-Glo; 72 h
Procedure: as §1, §2

MOLM-14 cell line = assay: Growth inhibition assay of MOLM-14 (CellTiter-Glo, example 63); assay type: cell-based; conditions: Homo sapiens, 48 h, method of example 63
Procedure: MOLM-14 cell line was cultured in RPMI-1640 Medium supplemented with 10% v/v Fetal Bovine Serum (FBS), 1% Penicillin-Streptomycin and maintained at 37° C. with 5% CO2. 10,000 cells were plated onto 96-well plates immediately before the assay.
Each compound was added at different concentrations (combinations of six concentrations) to each well, and cell cultures were incubated for 48 h. Vehicle (H2O) was used as a control, and all compounds were tested in a constant percentage of vehicle. Cell outgrowth was measured using the CellTiter-Glo luminescent cell viability assay as described by the manufacturer (Promega, Ref G7571 Madison, Wis., USA) using a Centro (Berthold, France) plate reader.
In each experiment, each point represents the average of triplicates in cell culture.
The experimental data are analyzed using a computer program, Graphpad Prism (GraphPad Software, Inc. La Jolla, Calif.) and EC50 values were determined as the dose of compound required to reduce absorbance values to 50% of the signal obtained for vehicle treated cell cultures.

[1] = test system: ALDH+ cancer stem cells (CSC) in MOLM-14 cell line; assay: Aldefluor kit assay, ALDH+ compartment analysis; assay type: cell-based, human; conditions: for Aldefluor™ positive CSCs (% of control): 72 h; for Aldefluor positive CSCs (% of control): MOLM-14 cell line, 72 h incubation
Description: Analysis of the of aldehyde dehydrogenase (ALDH) compartment and high activity level of aldehyde dehydrogenase activity (ALDH+) was used to detect tumor initiating cells (cancer stem cells, CSC) population. The Aldefluor™ kit assay (StemCell Technologies) allowed to assess the activity of drugs on CSC cells like in aa MOLM-14 acute myeloid leukemia cell line population. The Aldefluor™ kit assay was used according to the procedure described by the manufacturer. Briefly, MOLM-14 cell line was cultured in RPMI-1640 Medium supplemented with 10% v/v Fetal Bovine Serum (FBS), 1% Penicillin-Streptomycin and maintained at 37° C. with 5% CO2. 5·10^5 cells were used in this assay. Each compound was added at different concentrations (see table 13 and 14), and cell cultures were incubated for 72 h. Vehicle (H2O) was used as a control, and all compounds were tested in a constant percentage of vehicle. Cells obtained from cell culture were incubated for 45 minutes at 37° C. with Aldefluor™ buffer assay containing the Bodipy™-aminoacetaldehyde (BAAA), a fluorescent ALDH aldehyde substrate. ALDH converts the fluorescent substrate BAAA to the Bodipy™-aminoacetic acid (BAA) which is retained in the cell. An active efflux inhibitor is present in the Adelfluor™ assay buffer in order to avoid the active efflux from the cell of the substrate product ALDH dependent converted BAA. The fluorescent signal is directly proportional to the ALDH activity in the cells and is measured by flow cytometry. A negative control is used to measure the background fluorescence level. For such purpose, 4-(N,N-diethylamino)-benzaldehyde (DEAB) was used as selective ALDH inhibitor. A viability cell count was performed using LIVE/DEAD® Fixable Far Red Dead Cell Stain Kit (Invitrogen). The experimental data are analyzed using a computer program, Graphpad Prism (GraphPad Software, Inc. La Jolla, Calif.) and EC50 values were determined as the dose of compound required to reduce absorbance values to 50% of the signal obtained for vehicle treated cell cultures.

BxPC-3 = assay: Cell viability assay, pancreatic cancer cell lines; assay type: cell-based; conditions: Homo sapiens; BxPC-3 (Pancreas); 48 h
Procedure: (§3) MiaPaCa-2, Panc-1 cells were grown in Dulbecco's modified eagle's medium (DMEM) (Gibco) supplemented with 10% fetal bovine serum (FBS), while BxPC-3, Capan-1, Capan-2 cells were grown in Roswell Park Memorial Institute 1640 (RPMI 1640) (Gibco) supplemented with 10% FBS. Gemcitabine (Gemzar) was purchased from Lilly France S.A.S (Suresnes, France). (3-(4,5-dimethylthiazol-2-yl)-2,5diphenyltetrazolium bromide, MTT) was purchased from Sigma-Aldrich.
(§4) BxPC-3, MiaPaCa-2, Panc-1 cells were seeded into a 96-well plate at 10,000 10,000 15,000 cells per well respectively, while Capan-1 and Capan-2 cells at 20,000 cells per well and allowed to adhere overnight. Then the culture medium was removed and replaced with fresh media alone as control or containing various concentrations of different compounds. In dose-dependent assay, the cells were treated with compound XIX-3 at the concentration varying from 0.1 μM to 100 μM while the cells being cultured by fresh media alone were used as control. After 48 h treatment, the number of remained viable cells was determined by (3-(4,5-dimethylthiazol-2-yl)-2,5diphenyltetrazolium bromide, MTT) colorimetric assay (see Sigma Aldrich protocol and Riss T. L. et al. Cell Viability Assays in Assay Guidance Manual 2013 ppl.). All experiments were done in duplicate and repeated two independent times.

HT29 = assay: CellTiter-Glo cell viability assay (example 57); assay type: cell-based; conditions: Homo sapiens, HT-29; HT29 (Colon); Cell Titer-Glo; 72 h
SkBr3 = assay: CellTiter-Glo cell viability assay (example 57); assay type: cell-based; conditions: Homo sapiens, SK-BR-3; SkBr3 (Breast); Cell Titer-Glo; 72 h
Procedure: as §1, §2

LNCaP = assay: CellTiter-Glo cell viability assay (example 57); assay type: cell-based; conditions: Homo sapiens; LNCaP (Prostate); Cell Titer-Glo; 72 h
Procedure: as §1, §2

HepG2 = assay: CellTiter-Glo cell viability assay (example 57); assay type: cell-based; conditions: Homo sapiens; HepG2 (Liver); Cell Titer-Glo; 72 h
Procedure: as §1, §2

Panc-1 = assay: Cell viability assay, pancreatic cancer cell lines; assay type: cell-based; conditions: Homo sapiens; Panc-1 (Pancreas); 48 h
Procedure: as §3, §4

Capan-1 = assay: Cell viability assay, pancreatic cancer cell lines; assay type: cell-based; conditions: Homo sapiens; Capan-1 (Pancreas); 48 h
Procedure: as §3, §4

Capan-2 = assay: Cell viability assay, pancreatic cancer cell lines; assay type: cell-based; conditions: Homo sapiens; Capan-2 (Pancreas); 48 h
Procedure: as §3, §4

MIA PaCa-2 = assay: Cell viability assay, pancreatic cancer cell lines; assay type: cell-based; conditions: Homo sapiens; MIA PaCa-2 (Pancreas); 48 h
Procedure: as §3, §4

U87-MG = assay: CellTiter 96 Aqueous One Solution (MTS) cell proliferation assay; assay type: cell-based; conditions: Homo sapiens, U-87 MG; U87-MG (Glioma); Cell Titer 96 Aqueous One Solution; 72 h; mean of seven independent triplicate assays
Procedure: The human glioblastoma cell line U87-MG was cultured in Minimum Essential Medium (Life Invitrogen, 31095029) supplemented with 10% fetal bovine serum (GIBCO, 10500-056) and 1 % penicillin-streptomycin (GIBCO, 15140-122). Flasks and plated used for the cell culture were coated with 25 μg/mL poly-D-lysine (Sigma, P7280).
Cell outgrowth was measured using a tetrazolium compound (3-[4,5-dimethylthiazol-2-yl]-5-[3-carboxymethoxyphenyl]-2-[4-sulfophenyl]-2H tetrazolium, inner salt [MTS]) from the CellTiter 96® Aqueous One Solution Cell Proliferation Assay (Promega, Ref G3580) and according to the manufacturer procedure.
5000 cells were plated onto 96-well plates in 100 μL of media per well and were allowed to grow overnight before the assay. Compounds were added at different concentrations to each well, and cell cultures were incubated for 72 h. Control compound was the diluent used for compound resuspension (H2O). After addition of 20 μL of CellTiter 96® Aqueous One Solution, absorbance at 492 nm was measured using a microplate reader Sunrise (Tecan). EC50 values were determined as the dose of compound required to reduce […] values to 50% of the signal obtained for untreated cell cultures. […] The experimental data are analyzed using a computer program, Graphpad Prism (GraphPad Software, Inc. La Jolla, Calif.).

B16F10 = assay: CellTiter-Glo cell viability assay (example 57); assay type: cell-based, human; conditions: Mus musculus, B16-F10; B16F10 (Melanoma); Cell Titer-Glo; 72 h

| EC50 (MOLM-14) [µM] | EC50 (HL60) [µM] | EC50 (SKM-1) [µM] | EC50 (U937) [µM] | EC50 (BxPC-3) [µM] | EC50 (HT29) [µM] | EC50 (LNCaP) [µM] | EC50 (HepG2) [µM] | Compound | EC50 (Kasumi-1) [µM] | EC50 (NB4) [µM] | EC50 (KG-1) [µM] | EC50 (SkBr3) [µM] | other results |
| --- | --- | --- | --- | --- | --- | --- | --- | --- | --- | --- | --- | --- | --- |
| 3 | 2 | 2 | 0.03 |  |  |  |  | Nc1ccn([C@@H]2O[C@H](CO)[C@@H](O)[C@@H]2O)c(=O)n1 [Cytarabine] | 0.15 | 0.02 | 0.15 |  | EC50 (MOLM-14 cell line): 1 µM; Aldefluor™ positive CSCs (% of control) ([1]; MOLM-14, 1 μM): 130 % of control; Aldefluor™ positive CSCs (% of control) ([1]; MOLM-14, 3 μM): 116 % of control; Activity against CSCs in Aldefluor™ assay (proportion of CSCs) ([1]; MOLM-14, dose dependent, Cytarabine up to 3-fold its EC50): not active against CSCs; Aldefluor positive CSCs (% of control) ([1]; 1 μM): 130 % of control; Aldefluor positive CSCs (% of control) ([1]; 3 μM): 116 % of control |
|  |  |  |  | 0.02 | 0.2 | 0.04 | 0.02 | Nc1ccn([C@@H]2O[C@H](CO)[C@@H](O)C2(F)F)c(=O)n1 [Gemcitabine, gemcitabine] |  |  |  | 0.2 |  |
| 50 | 40 | 70 | 60 | 53 | 20 | 25 | 20 | CCN(CCO)CCCC(C)Nc1ccnc2cc(Cl)ccc12 (stereo not drawn) [HCQ, hydroxychloroquine] | 20 | 57 | 60 | 20 | EC50 (Panc-1): 57 µM; EC50 (Capan-1): 41 µM; EC50 (Capan-2): 47 µM; EC50 (MIA PaCa-2): 47 µM; EC50 (U87-MG): 55 µM; EC50 (B16F10): 20 µM |
